According to the NIST ThermoML archive (doi:10.1021/je0601457):
± gives the expanded uncertainty stated by the source.

Test: xn = mol fraction of the nth substance listed

Cc1nccnc1C [2,3-dimethylpyrazine] + O=C=O
Fluid (supercritical or subcritical phases), Linear displacement technique
Details	mass density [kg/m3]
294.15 K, 7140 kPa, x1 = 0.027	905 ± 36
294.15 K, 9590 kPa, x1 = 0.027	934 ± 37
294.15 K, 14100 kPa, x1 = 0.027	983 ± 39
294.55 K, 7140 kPa, x1 = 0.049	1099 ± 46
294.55 K, 7140 kPa, x1 = 0.184	947 ± 38
294.55 K, 8520 kPa, x1 = 0.184	949 ± 38
294.55 K, 10590 kPa, x1 = 0.049	1123 ± 45
294.55 K, 12450 kPa, x1 = 0.184	951 ± 38
294.55 K, 13830 kPa, x1 = 0.049	1142 ± 47
294.75 K, 2240 kPa, x1 = 0.736	861 ± 34
294.75 K, 3830 kPa, x1 = 0.736	864 ± 35
294.75 K, 5690 kPa, x1 = 0.736	864 ± 35
294.75 K, 6720 kPa, x1 = 0.033	836 ± 34
294.75 K, 8450 kPa, x1 = 0.033	858 ± 35
294.75 K, 13830 kPa, x1 = 0.033	911 ± 37
294.85 K, 6660 kPa, x1 = 0.108	899 ± 36
294.85 K, 7070 kPa, x1 = 0.565	958 ± 38
294.85 K, 10070 kPa, x1 = 0.108	901 ± 36
294.85 K, 10620 kPa, x1 = 0.565	961 ± 38
294.85 K, 13620 kPa, x1 = 0.108	904 ± 36
294.85 K, 15240 kPa, x1 = 0.565	964 ± 39
294.85 K, 18660 kPa, x1 = 0.108	908 ± 36
295.05 K, 7070 kPa, x1 = 0.157	995 ± 40
295.05 K, 10310 kPa, x1 = 0.157	1004 ± 40
295.05 K, 13480 kPa, x1 = 0.157	1014 ± 41
295.25 K, 6140 kPa, x1 = 0.086	767 ± 31
295.25 K, 6380 kPa, x1 = 0.057	871 ± 35
295.25 K, 7410 kPa, x1 = 0.057	885 ± 36
295.25 K, 7690 kPa, x1 = 0.01	785 ± 32
295.25 K, 8380 kPa, x1 = 0.086	778 ± 31
295.25 K, 10170 kPa, x1 = 0.057	911 ± 38
295.25 K, 11100 kPa, x1 = 0.01	833 ± 34
295.25 K, 12100 kPa, x1 = 0.086	799 ± 32
295.25 K, 15790 kPa, x1 = 0.01	873 ± 35
295.25 K, 16070 kPa, x1 = 0.086	817 ± 33
296.25 K, 4410 kPa, x1 = 0.433	989 ± 40
296.25 K, 7660 kPa, x1 = 0.433	997 ± 40
296.25 K, 10720 kPa, x1 = 0.433	1002 ± 40
301.75 K, 6620 kPa, x1 = 0.565	938 ± 38
301.75 K, 9830 kPa, x1 = 0.565	941 ± 38
301.75 K, 15790 kPa, x1 = 0.565	946 ± 38
302.65 K, 7520 kPa, x1 = 0.049	902 ± 36
302.65 K, 10030 kPa, x1 = 0.049	934 ± 37
302.65 K, 13030 kPa, x1 = 0.049	962 ± 39
302.65 K, 16660 kPa, x1 = 0.049	1000 ± 40
303.25 K, 7410 kPa, x1 = 0.291	859 ± 35
303.25 K, 9860 kPa, x1 = 0.291	860 ± 34
303.25 K, 15450 kPa, x1 = 0.291	860 ± 34
306.25 K, 7410 kPa, x1 = 0.027	750 ± 31
306.25 K, 9900 kPa, x1 = 0.027	812 ± 33
306.25 K, 13380 kPa, x1 = 0.027	864 ± 35
308.95 K, 7070 kPa, x1 = 0.157	952 ± 40
308.95 K, 9450 kPa, x1 = 0.157	964 ± 39
308.95 K, 13480 kPa, x1 = 0.157	981 ± 39
308.95 K, 17690 kPa, x1 = 0.157	996 ± 40
310.85 K, 6970 kPa, x1 = 0.433	967 ± 39
310.85 K, 12480 kPa, x1 = 0.433	975 ± 39
310.85 K, 21340 kPa, x1 = 0.433	994 ± 40
311.45 K, 7380 kPa, x1 = 0.184	912 ± 37
311.45 K, 9210 kPa, x1 = 0.184	918 ± 37
311.45 K, 12380 kPa, x1 = 0.184	925 ± 37
311.45 K, 16720 kPa, x1 = 0.184	932 ± 37
312.65 K, 10170 kPa, x1 = 0.033	763 ± 31
312.65 K, 12660 kPa, x1 = 0.033	804 ± 33
312.65 K, 15970 kPa, x1 = 0.033	851 ± 34
312.75 K, 8520 kPa, x1 = 0.057	874 ± 35
312.75 K, 9970 kPa, x1 = 0.057	905 ± 37
312.75 K, 10450 kPa, x1 = 0.057	914 ± 38
313.95 K, 10520 kPa, x1 = 0.108	879 ± 35
313.95 K, 13660 kPa, x1 = 0.108	888 ± 36
313.95 K, 17210 kPa, x1 = 0.108	896 ± 36
314.25 K, 9830 kPa, x1 = 0.01	500 ± 40
314.25 K, 11830 kPa, x1 = 0.01	769 ± 32
314.25 K, 18590 kPa, x1 = 0.01	799 ± 32
315.85 K, 9380 kPa, x1 = 0.086	702 ± 29
315.85 K, 12310 kPa, x1 = 0.086	728 ± 29
315.85 K, 16520 kPa, x1 = 0.086	752 ± 30
315.85 K, 24210 kPa, x1 = 0.086	786 ± 31
316.05 K, 7480 kPa, x1 = 0.291	857 ± 34
316.05 K, 8660 kPa, x1 = 0.291	858 ± 34
316.05 K, 11340 kPa, x1 = 0.291	858 ± 35
316.25 K, 6170 kPa, x1 = 0.565	923 ± 37
316.25 K, 10000 kPa, x1 = 0.565	926 ± 37
316.25 K, 16380 kPa, x1 = 0.565	935 ± 37
317.35 K, 5590 kPa, x1 = 0.736	859 ± 34
317.35 K, 11590 kPa, x1 = 0.736	860 ± 34
317.35 K, 16450 kPa, x1 = 0.736	862 ± 34
318.75 K, 7690 kPa, x1 = 0.433	955 ± 38
318.75 K, 16070 kPa, x1 = 0.433	969 ± 39
318.75 K, 22930 kPa, x1 = 0.433	977 ± 39
319.35 K, 10520 kPa, x1 = 0.049	834 ± 34
319.35 K, 15340 kPa, x1 = 0.049	906 ± 36
319.35 K, 18660 kPa, x1 = 0.049	946 ± 38
321.05 K, 10210 kPa, x1 = 0.157	927 ± 38
321.05 K, 12000 kPa, x1 = 0.157	937 ± 38
321.05 K, 16280 kPa, x1 = 0.157	958 ± 38
321.05 K, 18660 kPa, x1 = 0.157	970 ± 39
322.35 K, 11790 kPa, x1 = 0.027	717 ± 30
322.35 K, 13000 kPa, x1 = 0.027	688 ± 28
322.35 K, 13410 kPa, x1 = 0.027	761 ± 47
322.35 K, 15620 kPa, x1 = 0.027	757 ± 31
322.35 K, 16310 kPa, x1 = 0.027	812 ± 33
323.35 K, 10660 kPa, x1 = 0.057	815 ± 33
323.35 K, 11970 kPa, x1 = 0.057	849 ± 34
323.35 K, 16030 kPa, x1 = 0.057	904 ± 36
324.95 K, 7830 kPa, x1 = 0.433	944 ± 38
324.95 K, 13900 kPa, x1 = 0.433	955 ± 38
324.95 K, 20660 kPa, x1 = 0.433	968 ± 39
325.25 K, 6140 kPa, x1 = 0.736	859 ± 34
325.25 K, 10720 kPa, x1 = 0.736	860 ± 34
325.25 K, 18170 kPa, x1 = 0.736	861 ± 34
325.65 K, 10520 kPa, x1 = 0.184	894 ± 36
325.65 K, 12660 kPa, x1 = 0.184	903 ± 36
325.65 K, 18030 kPa, x1 = 0.184	916 ± 37
328.55 K, 10170 kPa, x1 = 0.291	857 ± 35
328.55 K, 10660 kPa, x1 = 0.01	438 ± 63
328.55 K, 10970 kPa, x1 = 0.01	552 ± 44
328.55 K, 11970 kPa, x1 = 0.01	635 ± 32
328.55 K, 12140 kPa, x1 = 0.291	858 ± 34
328.55 K, 13000 kPa, x1 = 0.01	688 ± 29

Liquid, linear displacement
Details	mass density [kg/m3]
294.15 K, x1 = 0.027	868 ± 35
294.55 K, x1 = 0.049	1077 ± 43
294.55 K, x1 = 0.184	945 ± 38
294.75 K, x1 = 0.033	802 ± 32
294.75 K, x1 = 0.736	861 ± 35
294.85 K, x1 = 0.108	896 ± 37
294.85 K, x1 = 0.565	947 ± 38
295.05 K, x1 = 0.157	982 ± 39
295.25 K, x1 = 0.01	735 ± 29
295.25 K, x1 = 0.057	832 ± 33
295.25 K, x1 = 0.086	730 ± 29
296.25 K, x1 = 0.433	985 ± 39
301.75 K, x1 = 0.565	920 ± 37
302.65 K, x1 = 0.049	876 ± 35
303.25 K, x1 = 0.291	858 ± 34
306.25 K, x1 = 0.027	738 ± 30
308.95 K, x1 = 0.157	948 ± 38
310.85 K, x1 = 0.433	962 ± 39
311.45 K, x1 = 0.184	912 ± 36
312.65 K, x1 = 0.033	694 ± 28
312.75 K, x1 = 0.057	860 ± 35
313.95 K, x1 = 0.108	864 ± 35
314.25 K, x1 = 0.01	584 ± 23
315.85 K, x1 = 0.086	687 ± 28
316.05 K, x1 = 0.291	858 ± 35
316.25 K, x1 = 0.565	920 ± 37
317.35 K, x1 = 0.736	859 ± 35
318.75 K, x1 = 0.433	951 ± 38
319.35 K, x1 = 0.049	790 ± 32
321.05 K, x1 = 0.157	912 ± 37
322.35 K, x1 = 0.027	612 ± 25
323.35 K, x1 = 0.057	784 ± 31
324.95 K, x1 = 0.433	940 ± 38
325.25 K, x1 = 0.736	857 ± 35
325.65 K, x1 = 0.184	885 ± 35
